Source: patent US9656988B2 (Pharmacyclics LLC, priority 2013, dated 2017)
pIC50: −log10 of the molar value. Read-outs that look alike come from different tables or passages of the source.

Target: BTK (Homo sapiens (Human), UniProt Q06187)
Assay: Btk in vitro inhibitory activity (one of Method A TR-FRET, Method B electrophoretic mobility shift, Method C radiometric filter binding)
Format: biochemical
[1] = determined using one of the methods of Example 355a, 355b and 355c, read-out: BTK IC50

BTK, sequence (Q06187 whole entry): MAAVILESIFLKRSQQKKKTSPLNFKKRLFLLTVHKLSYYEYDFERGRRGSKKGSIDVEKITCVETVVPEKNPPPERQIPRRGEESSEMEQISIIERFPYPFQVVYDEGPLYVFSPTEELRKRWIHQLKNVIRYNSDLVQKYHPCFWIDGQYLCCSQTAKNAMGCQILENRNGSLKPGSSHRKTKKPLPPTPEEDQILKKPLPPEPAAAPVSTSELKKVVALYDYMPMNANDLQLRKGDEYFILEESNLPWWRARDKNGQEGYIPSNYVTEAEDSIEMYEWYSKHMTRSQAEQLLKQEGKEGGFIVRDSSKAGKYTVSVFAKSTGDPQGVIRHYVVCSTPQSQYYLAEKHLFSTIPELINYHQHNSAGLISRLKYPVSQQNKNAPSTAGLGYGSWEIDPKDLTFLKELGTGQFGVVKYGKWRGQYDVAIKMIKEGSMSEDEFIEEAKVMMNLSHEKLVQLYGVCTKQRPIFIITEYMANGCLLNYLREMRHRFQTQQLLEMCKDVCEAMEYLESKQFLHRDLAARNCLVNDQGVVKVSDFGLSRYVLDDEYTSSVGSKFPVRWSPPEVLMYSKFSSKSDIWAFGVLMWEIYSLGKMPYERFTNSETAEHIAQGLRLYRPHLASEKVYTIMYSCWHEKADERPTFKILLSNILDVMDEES

| pIC50 [1] | pIC50 (read-out: Btk (IC50)) | pIC50 (Btk (IC50)) | SMILES |
| --- | --- | --- | --- |
| > 8.00 | > 8.00 |  | NC(=O)c1ncc(N2CCC[C@@H](N3CCN(C4CC4)C3=O)C2)nc1Nc1ccc(C2CCN(C3CCC3)CC2)cc1 [Example 278, (R)-3-(4-(1-cyclobutylpiperidin-4-yl)phenylamino)-5-(3-(3-cyclopropyl-2-oxoimidazolidin-1-yl)piperidin-1-yl)pyrazine-2-carboxamide] |
| > 8.00 |  | > 8.00 | C[C@@H]1[C@H](N2CCCN(C)C2=O)CCCN1c1cnc(C(N)=O)c(Nc2ccc(C3CCN(C4CCCC4)CC3)cc2)n1 [Example 281, 3-(4-(1-cyclopentylpiperidin-4-yl)phenylamino)-5-((2R,3R)-2-methyl-3-(3-methyl-2-oxotetrahydropyrimidin-1(2H)-yl)piperidin-1-yl)pyrazine-2-carboxamide] |
| > 8.00 | > 8.00 |  | CN1CCCN([C@@H]2CCCN(c3cnc(C(N)=O)c(Nc4ccc(C5CCN(C6CCCC6)CC5)cc4)n3)C2)C1=O [Example 282, (R)-3-(4-(1-cyclopentylpiperidin-4-yl)phenylamino)-5-(3-(3-methyl-2-oxotetrahydropyrimidin-1(2H)-yl)piperidin-1-yl)pyrazine-2-carboxamide] |
| > 8.00 | > 8.00 |  | CN1CCCN([C@@H]2CCCN(c3cnc(C(N)=O)c(Nc4ccc(C5CCN(C6CC6)CC5)cc4)n3)C2)C1=O [Example 284, (R)-3-(4-(1-cyclopropylpiperidin-4-yl)phenylamino)-5-(3-(3-methyl-2-oxotetrahydropyrimidin-1(2H)-yl)piperidin-1-yl)pyrazine-2-carboxamide] |
| 7.00 to 8.00 | 7.00 to 8.00 |  | NC(=O)c1ncc(N2CCC[C@H]3NCC[C@H]32)nc1Nc1ccc(C2CCN(C3CCCC3)CC2)cc1 [Example 286, 3-(4-(1-cyclopentylpiperidin-4-yl)phenylamino)-5-((3aR,7aR)-dihydro-1H-pyrrolo[3,2-b]pyridin-4(2H,5H,6H,7H,7aH)-yl)pyrazine-2-carboxamide] |
| 7.00 to 8.00 |  |  | CN(C)C(=O)N1CCC[C@@H]2[C@H]1CCCN2c1cnc(C(N)=O)c(Nc2ccc(C3CCN(C4CCCC4)CC3)cc2)n1 [Example 289, (4aR,8aR)-5-(5-carbamoyl-6-(4-(1-cyclopentylpiperidin-4-yl)phenylamino)pyrazin-2-yl)-N,N-dimethyloctahydro-1,5-naphthyridine-1(2H)-carboxamide] |
| 7.00 to 8.00 |  |  | C[C@@H]1CCN(c2cnc(C(N)=O)c(Nc3ccc(C4CCN(C5CCCC5)CC4)cc3)n2)C[C@@H]1NC(=O)N(C)C [Example 290, 3-(4-(1-cyclopentylpiperidin-4-yl)phenylamino)-5-((3R,4R)-3-(3,3-dimethylureido)-4-methylpiperidin-1-yl)pyrazine-2-carboxamide] |
| > 8.00 | > 8.00 |  | NC(=O)c1ncc(N2CCC[C@@H](NC=O)C2)nc1Nc1ccc(C2CCN(C3CCCC3)CC2)cc1 [Example 295, (R)-3-(4-(1-cyclopentylpiperidin-4-yl)phenylamino)-5-(3-formamidopiperidin-1-yl)pyrazine-2-carboxamide] |
| > 8.00 | > 8.00 |  | CCC(=O)N[C@@H]1CCCN(c2cnc(C(N)=O)c(Nc3ccc(C4CCN(C5CCCC5)CC4)cc3)n2)C1 [Example 296, (R)-3-(4-(1-cyclopentylpiperidin-4-yl)phenylamino)-5-(3-propionamidopiperidin-1-yl)pyrazine-2-carboxamide] |
| > 8.00 | > 8.00 |  | CCN(C)C(=O)N[C@@H]1CCCN(c2cnc(C(N)=O)c(Nc3ccc(C4CCN(C5CCCC5)CC4)cc3)n2)C1 [Example 297, (R)-3-(4-(1-cyclopentylpiperidin-4-yl)phenylamino)-5-(3-(3-ethyl-3-methylureido)piperidin-1-yl)pyrazine-2-carboxamide] |
| > 8.00 | > 8.00 |  | CCOC(=O)N[C@@H]1CCCN(c2cnc(C(N)=O)c(Nc3ccc(C4CCN(C5CCCC5)CC4)cc3)n2)C1 [Example 298, (R)-ethyl 1-(5-carbamoyl-6-(4-(1-cyclopentylpiperidin-4-yl)phenylamino)pyrazin-2-yl)piperidin-3-ylcarbamate] |
| > 8.00 | > 8.00 |  | NC(=O)c1ncc(N2CCC[C@@H](NC(=O)C3CC3)C2)nc1Nc1ccc(C2CCN(C3CCCC3)CC2)cc1 [Example 299, (R)-3-(4-(1-cyclopentylpiperidin-4-yl)phenylamino)-5-(3-(cyclopropanecarboxamido)piperidin-1-yl)pyrazine-2-carboxamide] |
| 7.00 to 8.00 |  | 7.00 to 8.00 | CS(=O)(=O)N[C@@H]1CCCN(c2cnc(C(N)=O)c(Nc3ccc(C4CCN(C5CCCC5)CC4)cc3)n2)C1 [Example 300, (R)-3-(4-(1-cyclopentylpiperidin-4-yl)phenylamino)-5-(3-(methylsulfonamido)piperidin-1-yl)pyrazine-2-carboxamide] |
| 7.00 to 8.00 |  |  | CCS(=O)(=O)N[C@@H]1CCCN(c2cnc(C(N)=O)c(Nc3ccc(C4CCN(C5CCCC5)CC4)cc3)n2)C1 [Example 301, (R)-3-(4-(1-cyclopentylpiperidin-4-yl)phenylamino)-5-(3-(ethylsulfonamido)piperidin-1-yl)pyrazine-2-carboxamide] |
| > 8.00 | > 8.00 |  | NC(=O)c1ncc(N2CCC[C@@H](NC(=O)c3ccccc3)C2)nc1Nc1ccc(C2CCN(C3CCCC3)CC2)cc1 [Example 303, (R)-5-(3-benzamidopiperidin-1-yl)-3-(4-(1-cyclopentylpiperidin-4-yl)phenylamino)pyrazine-2-carboxamide] |
| > 8.00 | > 8.00 |  | NC(=O)c1ncc(N2CCC[C@@H](NC(=O)c3cccnc3)C2)nc1Nc1ccc(C2CCN(C3CCCC3)CC2)cc1 [Example 304, (R)-3-(4-(1-cyclopentylpiperidin-4-yl)phenylamino)-5-(3-(nicotinamido)piperidin-1-yl)pyrazine-2-carboxamide] |
| > 8.00 | > 8.00 |  | NC(=O)c1ncc(N2CCC[C@@H](NC(=O)c3cncc(F)c3)C2)nc1Nc1ccc(C2CCN(C3CCCC3)CC2)cc1 [Example 305, (R)-3-(4-(1-cyclopentylpiperidin-4-yl)phenylamino)-5-(3-(5-fluoronicotinamido)piperidin-1-yl)pyrazine-2-carboxamide] |
| > 8.00 | > 8.00 |  | NC(=O)c1ncc(N2CCC[C@@H](N3Cc4ccccc4C3=O)C2)nc1Nc1ccc(C2CCN(C3CCCC3)CC2)cc1 [Example 307, (R)-3-(4-(1-cyclopentylpiperidin-4-yl)phenylamino)-5-(3-(1-oxoisoindolin-2-yl)piperidin-1-yl)pyrazine-2-carboxamide] |
| 6.00 to 7.00 | 6.00 to 7.00 |  | NC(=O)c1ncc(N2CCC[C@@H](NC(=O)C3CC4(CCC4)C3)C2)nc1Nc1ccc(C2CCN(C3CC3)CC2)cc1 [Example 309, 3-(4-(1-cyclopropylpiperidin-4-yl)phenylamino)-5-((3R)-3-(spiro[3.3]heptane-2-carboxamido)piperidin-1-yl)pyrazine-2-carboxamide] |
| 7.00 to 8.00 | 7.00 to 8.00 |  | NC(=O)c1ncc(N2CCC[C@@H](NC(=O)C3CCCC3)C2)nc1Nc1ccc(C2CCN(C3CC3)CC2)cc1 [Example 310, (R)-5-(3-(cyclopentanecarboxamido)piperidin-1-yl)-3-(4-(1-cyclopropylpiperidin-4-yl)phenylamino)pyrazine-2-carboxamide] |
| > 8.00 | > 8.00 |  | NC(=O)c1ncc(N2CCC[C@@H](NC(=O)c3ccc(Cl)cc3)C2)nc1Nc1ccc(C2CCN(C3CC3)CC2)cc1 [Example 311, (R)-5-(3-(4-chlorobenzamido)piperidin-1-yl)-3-(4-(1-cyclopropylpiperidin-4-yl)phenylamino)pyrazine-2-carboxamide] |
| > 8.00 | > 8.00 |  | NC(=O)c1ncc(N2CCC[C@@H](NC(=O)c3cccc(Cl)c3)C2)nc1Nc1ccc(C2CCN(C3CC3)CC2)cc1 [Example 312, (R)-5-(3-(3-chlorobenzamido)piperidin-1-yl)-3-(4-(1-cyclopropylpiperidin-4-yl)phenylamino)pyrazine-2-carboxamide] |
| > 8.00 | > 8.00 |  | NC(=O)c1ncc(N2CCC[C@@H](NC(=O)c3cncc(Cl)c3)C2)nc1Nc1ccc(C2CCN(C3CC3)CC2)cc1 [Example 313, (R)-5-(3-(5-chloronicotinamido)piperidin-1-yl)-3-(4-(1-cyclopropylpiperidin-4-yl)phenylamino)pyrazine-2-carboxamide] |

| SMILES | pIC50 [1] | pIC50 (read-out: Btk (IC50)) | pIC50 (Btk (IC50)) |
| --- | --- | --- | --- |
| CC1(c2ccc(Nc3nc(N4CCC[C@@H](N5CCN(C6CC6)C5=O)C4)cnc3C(N)=O)cc2)CCN(C2CC2)CC1 [Example 279, (R)-5-(3-(3-cyclopropyl-2-oxoimidazolidin-1-yl)piperidin-1-yl)-3-(4-(1-cyclopropyl-4-methylpiperidin-4-yl)phenylamino)pyrazine-2-carboxamide] |  | > 8.00 |  |
| CN1CCCN([C@@H]2CCCN(c3cnc(C(N)=O)c(Nc4ccc(C5(C)CCN(C6CCCC6)CC5)cc4)n3)C2)C1=O [Example 283, (R)-3-(4-(1-cyclopentyl-4-methylpiperidin-4-yl)phenylamino)-5-(3-(3-methyl-2-oxotetrahydropyrimidin-1(2H)-yl)piperidin-1-yl)pyrazine-2-carboxamide] | > 8.00 | > 8.00 |  |
| CN1CCCN([C@@H]2CCCN(c3cnc(C(N)=O)c(Nc4ccc(C5(C)CCN(C6CC6)CC5)cc4)n3)C2)C1=O [Example 285, (R)-3-(4-(1-cyclopropyl-4-methylpiperidin-4-yl)phenylamino)-5-(3-(3-methyl-2-oxotetrahydropyrimidin-1(2H)-yl)piperidin-1-yl)pyrazine-2-carboxamide] | > 8.00 | > 8.00 |  |
| CN(C)S(=O)(=O)N[C@@H]1CCCN(c2cnc(C(N)=O)c(Nc3ccc(C4CCN(C5CCCC5)CC4)cc3)n2)C1 [Example 302, (R)-3-(4-(1-cyclopentylpiperidin-4-yl)phenylamino)-5-(3-(N,N-dimethylsulfamoylamino)piperidin-1-yl)pyrazine-2-carboxamide] | 7.00 to 8.00 |  |  |
| NC(=O)c1ncc(N2CCC[C@@H](NC(=O)c3ccc(Cl)s3)C2)nc1Nc1ccc(C2CCN(C3CC3)CC2)cc1 [Example 314, (R)-5-(3-(5-chlorothiophene-2-carboxamido)piperidin-1-yl)-3-(4-(1-cyclopropylpiperidin-4-yl)phenylamino)pyrazine-2-carboxamide] | 7.00 to 8.00 |  |  |
